According to PubChem BioAssay (NCI):
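Exposure lasted 48 hours, with cells grown in 96-well plates and compounds tested at five concentrations. Here, GI50 denotes the concentration required for 50% inhibition of growth. At the TGI there is no net growth.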

Legend:
Experiment in all cases: NCI anticancer screen, dose series, 48 h
[1] = system: MDA-N
[2] = system: T-47D breast
[3] = system: PC-3 prostate
[4] = system: HS 578T breast
[5] = system: SNB-78 CNS
[6] = system: KM20L2 colon
[7] = system: M19-MEL melanoma
[8] = system: XF 498 CNS
[9] = system: RXF-631 renal

Compound	TGI [2]	TGI [3]	TGI [4]	GI50 [2]	GI50 [3]	GI50 [4]	TGI [6]	further results
CCN=C(N)CSS(=O)(=O)O	> 100 µM	> 100 µM	> 100 µM					TGI [1]: > 100 µM
c1ccc(CNc2nc(Nc3ccc(-c4nc5ccccc5[nH]4)cc3)c3cn[nH]c3n2)cc1	5.46 µM	6.36 µM	8.22 µM	1.63 µM	1.78 µM	2.45 µM		
O=C1/C(=C\c2ccccc2)CN(C(=O)c2ccccc2F)C/C1=C\c1ccccc1	8.78 µM	7.22 µM	7.13 µM	2.57 µM	2.34 µM	2.48 µM		
C/C(=N\NC(=S)Nc1ccccc1)c1ccccn1	6.41 µM	5.73 µM	38.4 µM	0.0168 µM	< 0.0171 µM	0.0857 µM		
CC/C(=C(/CC)c1ccc(OP(=O)([O-])[O-])cc1)c1ccc(OP(=O)([O-])[O-])cc1.N.N.N.N.[Pt+4].[Pt+4]							> 100 µM	GI50 [5]: 2.3 µM; TGI [5]: 6.81 µM; GI50 [6]: 26.1 µM
CCOC(=O)/C(=C/c1c(-c2ccccc2)[nH]c2ccccc12)C(=O)c1ccc(Cl)cc1	8.24 µM	> 100 µM	57.5 µM	2.27 µM	3.08 µM	3.73 µM		
COc1cccc(C2C3=C(COC3=O)N(CCO)c3cc4c(cc32)CCC4)c1 (stereo unspecified)	36.6 µM	> 50 µM	32.4 µM	0.0832 µM	0.0577 µM	0.0285 µM		
CC1C2CC(CC2=O)C1(C)C (stereo unspecified)	> 100 µM	> 100 µM	> 100 µM					TGI [1]: > 100 µM
COc1ccc(C2=NN(c3ccc(S(N)(=O)=O)cc3)C(c3ccc(Cl)cc3)C2)c(O)c1 (stereo unspecified)	7.81 µM	14.6 µM	19.5 µM	2.4 µM	2.78 µM	3.93 µM		
COC(=O)[C@@]12C3=NO[C@]1(C(=O)OC)C(O[Si](C)(C)C(C)(C)C)C1OC(C)(C)OC1[C@@H]2[C@@H](OCc1ccccc1)CC3 (stereo partly specified)							> 100 µM	TGI [7]: > 100 µM
CC(=O)C(CN1CCOCC1)C(c1ccccc1)c1c(O)c2ccccc2oc1=O (stereo unspecified)	> 100 µM	> 100 µM	> 100 µM					TGI [1]: > 100 µM
COc1ccc(C(NCCNC(c2ccc(OC)c(OC)c2)c2cc3c(cc2O)OCO3)c2cc3c(cc2O)OCO3)cc1OC (stereo unspecified)	13.1 µM	6.64 µM	> 100 µM					TGI [1]: 3.58 µM
CCN1C(=O)N(CC)C2C1NN=c1s/c(=C\c3ccc([N+](=O)[O-])cc3)c(=O)n12 (stereo unspecified)	> 100 µM	> 75.9 µM	> 72.5 µM	0.575 µM	0.387 µM	0.328 µM		
C=C1CCC2C3(C)COC(c4cccc(Cl)c4)OC3CCC2(C)C1/C=C/C1=CCOC1=O (stereo unspecified)	> 100 µM	> 100 µM	> 100 µM	1.83 µM	3.77 µM	7.42 µM		
COC(=O)C12C3C=CC(O3)C1C1C=CC2O1 (stereo unspecified)							> 100 µM	TGI [8]: > 100 µM; TGI [7]: > 100 µM
CCOC(=O)C1=C(O)CSC1=Nc1ccc(N=C2SCC(O)=C2C(=O)OCC)cc1							> 100 µM	TGI [5]: > 100 µM; TGI [8]: 42 µM; TGI [7]: 61.2 µM
Cn1c(=O)c2c(nc3n2C(CCl)CO3)n(C)c1=O (stereo unspecified)								TGI [5]: > 100 µM; TGI [9]: > 100 µM; TGI [7]: > 100 µM

Compound	TGI [2]	TGI [3]	TGI [4]	GI50 [2]	GI50 [3]	GI50 [4]	TGI [6]	further results
Cc1ccc2c(c1)/C(=N\N=C/c1cn(C(C)C)c3ccccc13)C(=O)N2	> 100 µM	45.3 µM	> 100 µM	0.953 µM	0.723 µM	10.6 µM		
C#CCSc1nnnn1-c1ccc(Br)c(C)c1	> 100 µM	> 100 µM	26.9 µM	21 µM	34.7 µM	2.86 µM		
COC(=O)CC(CC(=O)C(=O)OC)C(=O)OC (stereo unspecified)							> 100 µM	TGI [5]: > 100 µM
Oc1ccc(-c2nc(-c3ccc(F)cc3)c(-c3ccncc3)[nH]2)cc1	63 µM	> 100 µM		8.75 µM	14.1 µM			
CNS(=O)(=O)NN(C)S(=O)(=O)c1ccc(C)cc1							> 100 µM	TGI [7]: > 100 µM
CC1(C)OCC(C2OC(On3nnc4ccc(Cl)cc43)C3OC(C)(C)OC23)O1 (stereo unspecified)	> 100 µM	> 100 µM	> 100 µM					TGI [1]: > 100 µM
CC1(C)CC(C2CC(C)(C)CC(C)(C)[C@H]2O)[C@@H](O)C(C)(C)C1 (stereo partly specified)							> 100 µM	TGI [8]: > 100 µM; TGI [7]: > 100 µM
Cc1cc(N(CCC#N)CCC#N)ccc1N=Nc1ccc([N+](=O)[O-])cc1							> 100 µM	TGI [5]: > 100 µM; TGI [7]: > 100 µM
CC(=O)NNc1nc(C)c(C(/C=C/c2ccc3c(c2)OCO3)=N/NC(=O)c2ccncc2)s1	> 100 µM	> 100 µM	> 100 µM					TGI [1]: > 100 µM
Nc1ccc(C(=O)O)c2[nH]c3ccccc3c(=O)c12							> 100 µM	TGI [5]: > 100 µM; TGI [7]: > 100 µM
C/C=C(\C)C(=O)O[C@@H]1C=CC(=O)O[C@H]1COC(=O)[C@H](C)O	25.6 µM	31.6 µM	34.6 µM	4.64 µM	10.5 µM	5.61 µM		
Cc1ccc(C)c(NC(=O)CCC(=O)CC(=O)C(C)(C)C)c1							> 100 µM	TGI [5]: > 100 µM; TGI [8]: > 100 µM; TGI [7]: > 100 µM
Cn1cc(-c2nonc2-c2cn(C)c3ccc(Br)cc23)c2ccccc21		> 100 µM			4.06 µM			
C[C@@H](Oc1cc(-n2cnc3ccc(OCC4CCN(C)CC4)cc32)sc1C(N)=O)c1ccccc1C(F)(F)F	6.03 µM	4.08 µM	5.02 µM	2.69 µM	0.114 µM	0.631 µM		
COc1cc(C2c3cc4c(cc3[C@@H](OCCN)[C@H]3COC(=O)C23)OCO4)cc(OC)c1O (stereo partly specified)							2.79 µM	TGI [5]: > 58.9 µM; TGI [8]: 0.489 µM; TGI [7]: 2.14 µM
COc1cc2c(cc1OCCCN1CCN(CCCOc3cc4c(cc3OC)C(=O)C3CCC[C@H]3C=N4)CC1)N=C[C@@H]1CCCC1C2=O (stereo partly specified)	> 100 µM	> 77.1 µM	15.1 µM	15 µM	2.99 µM	1.42 µM		
Nc1nccc(C#Cc2cncnc2Nc2ccc(OCc3cccc(F)c3)c(Cl)c2)n1	8.03 µM	9.63 µM	20.5 µM	3.1 µM	4.5 µM	6.32 µM		
